Patent publication US8765735B2, “Isoxazolines as inhibitors of fatty acid amide hydrolase” (Infinity Pharmaceuticals, Inc., priority 2009, dated 2014)

Biological target: T1, human FAAH (Homo sapiens, UniProt O00519)
T1 construct: host or cells: COS-7 cells, transient transfection; 13,000 g membrane fraction solubilised in 1% Triton X-100
T1 sequence (O00519 1-579): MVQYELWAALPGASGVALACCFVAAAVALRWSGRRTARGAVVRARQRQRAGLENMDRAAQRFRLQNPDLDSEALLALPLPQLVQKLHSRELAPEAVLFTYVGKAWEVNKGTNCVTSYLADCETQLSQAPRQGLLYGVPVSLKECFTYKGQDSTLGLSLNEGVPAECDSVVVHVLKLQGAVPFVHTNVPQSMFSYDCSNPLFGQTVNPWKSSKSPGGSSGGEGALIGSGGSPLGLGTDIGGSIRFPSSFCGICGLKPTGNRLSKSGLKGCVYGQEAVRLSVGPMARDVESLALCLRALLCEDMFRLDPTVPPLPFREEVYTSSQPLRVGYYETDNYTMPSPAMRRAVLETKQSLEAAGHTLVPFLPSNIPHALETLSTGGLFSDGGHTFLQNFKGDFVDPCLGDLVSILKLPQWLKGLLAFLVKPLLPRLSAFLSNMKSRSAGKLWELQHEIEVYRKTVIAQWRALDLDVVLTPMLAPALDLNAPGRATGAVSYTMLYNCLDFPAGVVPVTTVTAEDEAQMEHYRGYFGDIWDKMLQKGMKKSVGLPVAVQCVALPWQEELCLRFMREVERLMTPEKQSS
Test: Inhibition of human FAAH (fluorescence assay, AMC arachidonoyl amide substrate)
Format: biochemical
Details: solubilized human FAAH from transfected COS-7 cells; 30 min preincubation; 20 μM AMC-arachidonoyl amide; 4 h at room temperature
Method: Human FAAH Preparation: COS-7 cells were split the day before, 1:5 into 150 mm×25 mm cell culture dishes (Corning Inc., Cat. No. 430599). Transient transfection took place at 30-40% confluency according to FuGENE 6 Transfection Reagent (Roche, Cat. No. 11814 443 001).
Transfection Procedure: The FuGENE transfection 6 reagent (45 uL) was added to 1410 μL of media (DMEM, serum free without pen/strep) in a 15 mL conical tube and incubated at room temp for 5 minutes, followed by the addition of FAAH plasmid DNA (15 μg) (OriGene Cat. No. TC119221, Genbank Accession No. NM_001441.1, 0.67 ug/uL) and a further incubation of 15 minutes at room temperature. The resulting solution was added into one dish of 30-40% confluent COS-7 cells in a drop-wise manner. The COS-7 cell dish was subsequently incubated for 48 hours. The cells are then harvested.
Harvest procedure: Media was aspirated from the dishes and the cells rinsed with 10 mL PBS. The PBS was removed and 3 mL of PBS added to the dish. The dish was scraped to resuspend the cells, and the subsequent cell suspension collected into a 15 mL conical tube. The cells were pelleted by centrifugation at 1200 rpm for 5 minutes in a bench top centrifuge. PBS was removed and the cell pellet snap frozen in liquid nitrogen and stored at −80° C.
COS-7 cells—FAAH purification: • (1) Fractionation: Frozen cell pellets from transient transfections were thawed on ice and resuspended in 12.5 mM Hepes pH 8.0, 100 mM NaCl, 1 mM EDTA (10 mL/0.2 g cell pellet). The pellets were dounce homogenized and then sonicated to produce cell extract. The cell extract was subsequently centrifuged at 1000 g to remove cellular debris. The pellet was discarded and the supernatant centrifuged at 13,000 g for 20 minutes. The pellet contained membrane bound FAAH. The supernatant was discarded and the pellet resolubilized. • (2) Re-solubilization: The fraction of interest, (13,000 g, membrane fraction) was re-suspended in 2.3 mL re-suspension buffer (20 mM Hepes pH 7.8, 10% v/v Glycerol, 1 mM EDTA, 1% Triton X-100) and the sample incubated on ice for 1 hour and then centrifuged to remove any particulate matter. The supernatant containing solubilized human FAAH was aliquoted and snap frozen in liquid nitrogen and stored at 80° C. until use. • (3) Characterization: Protein Concentration determined by Bradford assay. • SDS gel and Western blot to confirm presence of FAAH • FAAH activity assay • Km determination—96-well assay • Linear dependence—96-well assay • Standard compound Ki determination—384-well assay
Human FAAH assay; Experimental Protocol: A 0.1 mg/mL Human FAAH solution was made up in FAAH reaction buffer, and 24 ul pipeted into a 384 well plate. To this was added 1 μL of a 3 fold serially diluted inhibitor from a DMSO stock solution. The FAAH solution and inhibitor were incubated for 30 minutes at room temperature. The FAAH reaction was initiated by the addition of 25 μL of 40 μM AMC Arachidonoyl Amide in FAAH reaction buffer, yielding a final reaction human FAAH preparation concentration of 0.05 mg/ml and AMC-Arachidonoyl substrate concentration of 20 μM, reaction volume 50 μL. The reaction was allowed to proceed for 4 hours at room temperature. The reaction was stopped by the addition of 25 μL 12 μM a-ketoheterocycle (Cayman Chemicals, catalogue #10435). The microtiter plate was read in the envision plate reader.
The raw fluorescence was plotted on the y axis and the inhibitor concentration on the x axis to give a dose response inhibition curve. The data was fitted to a single site competitive inhibition equation, fixing the Km for the human enzyme to 12 μM and 9 μM respectively.

Row | Ki | Structure (SMILES)
1 | 100 to 1000 nM | CC(C)(C)[C@H]1CC[C@]2(CC1)CC(Br)=NO2 [III-2a]
2 | 100 to 1000 nM | CC(C)(C)[C@H]1CC[C@@]2(CC1)CC(Br)=NO2 [III-2b]
3 | ≤ 100 nM | BrC1=NO[C@]2(CC[C@H](c3ccccc3)CC2)C1 [III-3a]
4 | ≤ 100 nM | BrC1=NO[C@]2(CC[C@@H](c3ccccc3)CC2)C1 [III-3b]
5 | ≥ 1000 nM | BrC1=NOC2(CCC3(CC2)OCCO3)C1 [III-4]
6 | ≤ 100 nM | BrC1=NO[C@]2(CC[C@H](COc3ccccc3)CC2)C1 [III-8a]
7 | ≤ 100 nM | BrC1=NO[C@]2(CC[C@@H](COc3ccccc3)CC2)C1 [III-8b]
8 | ≥ 1000 nM | CC(C)(C)OC(=O)N1CCC[C@@]2(CC(Br)=NO2)C1 [III-10a]
9 | ≥ 1000 nM | CC(C)(C)OC(=O)N1CCC[C@]2(CC(Br)=NO2)C1 [III-10b]
10 | 100 to 1000 nM | CC(C)(C)OC(=O)N1CC[C@@]2(CC(Br)=NO2)C1 [III-11a]
11 | 100 to 1000 nM | CC(C)(C)OC(=O)N1CC[C@]2(CC(Br)=NO2)C1 [III-11b]
12 | ≤ 100 nM | CC(C)(C)OC(=O)N1CCC[C@@]2(CC1)CC(Br)=NO2 [III-12a]
13 | ≤ 100 nM | CC(C)(C)OC(=O)N1CCC[C@]2(CC1)CC(Br)=NO2 [III-12b]
14 | ≥ 1000 nM | CC(=O)N1CCC2(CC1)CC(Br)=NO2 [III-15]
15 | ≤ 100 nM | O=C(c1ccccc1)N1CCC2(CC1)CC(Br)=NO2 [III-16]
16 | 100 to 1000 nM | O=S(=O)(c1ccccc1)N1CCC2(CC1)CC(Br)=NO2 [III-17]
17 | ≤ 100 nM | O=C(OCc1ccccc1)N1CCC2(CC1)CC(Br)=NO2 [III-18]
18 | ≤ 100 nM | COc1ccc(CN2CCC3(CC2)CC(Br)=NO3)cc1 [III-21]
19 | ≤ 100 nM | Clc1ccc(CN2CCC3(CC2)CC(Br)=NO3)cc1Cl [III-25]
20 | ≤ 100 nM | FC(F)(F)c1ccc(CN2CCC3(CC2)CC(Br)=NO3)cc1 [III-26]

Row | Ki | Structure (SMILES)
21 | ≤ 100 nM | BrC1=NOC2(CCN(CCCc3ccccc3)CC2)C1 [III-28]
22 | 100 to 1000 nM | BrC1=NOC2(CCN(c3ccccc3)CC2)C1 [III-30]
23 | 100 to 1000 nM | BrC1=NOC2(CCN(c3ccc(Br)cc3)CC2)C1 [III-31]
24 | ≤ 100 nM | O=C(CCc1ccccc1)N1CCC2(CC1)CC(Br)=NO2 [III-34]
25 | 100 to 1000 nM | COC(=O)N1CCC2(CC1)CC(Br)=NO2 [III-35]
26 | ≤ 100 nM | CC(C)COC(=O)N1CCC2(CC1)CC(Br)=NO2 [III-36]
27 | ≤ 100 nM | O=C(Oc1ccccc1)N1CCC2(CC1)CC(Br)=NO2 [III-37]
28 | 100 to 1000 nM | O=C(OCC(Cl)(Cl)Cl)N1CCC2(CC1)CC(Br)=NO2 [III-38]
29 | ≤ 100 nM | COc1ccc(COC(=O)N2CCC3(CC2)CC(Br)=NO3)cc1 [III-39]
30 | ≤ 100 nM | O=C(OCc1ccc(Cl)cc1)N1CCC2(CC1)CC(Br)=NO2 [III-40]
31 | 100 to 1000 nM | BrC1=NOC2CC(OCc3ccccc3)CC12 (stereo not drawn) [III-42]
32 | 100 to 1000 nM | CC(C)(C)OC(=O)N1C[C@@H]2C(Br)=NO[C@@H]2C1 [III-43a]
33 | 100 to 1000 nM | CC(C)(C)OC(=O)N1C[C@@H]2ON=C(Br)[C@@H]2C1 [III-43b]
34 | ≤ 100 nM | O=C(OCc1ccccc1)N1CC2ON=C(Br)C2C1 (stereo not drawn) [III-44]
35 | ≤ 100 nM | O=C(OCc1ccccc1)N1CCC2(CC1)CC(Oc1cccnc1)=NO2 [III-46]
36 | ≤ 100 nM | CC(C)(C)OC(=O)N1CCC2(CC1)CC(Cl)=NO2 [III-47]
37 | ≤ 100 nM | ClC1=NOC2(CCN(Cc3ccc(Cl)cc3)CC2)C1 [III-48]
38 | ≤ 100 nM | C#Cc1ccc(CN2CCC3(CC2)CC(Br)=NO3)cc1 [III-49]
39 | ≤ 100 nM | C#Cc1ccc(CN2CCC3(CC2)CC(Oc2cccnc2)=NO3)cc1 [III-50]
40 | ≤ 100 nM | Clc1ccc(CN2CCC3(CC2)CC(Oc2cccnc2)=NO3)cc1 [III-51]

Row | Ki | Structure (SMILES)
41 | ≤ 100 nM | Clc1ccc(CN2CCC3(CC2)CC(Oc2cncnc2)=NO3)cc1 [III-52]
42 | 100 to 1000 nM | O=C(CCc1ccccc1)N1CCC2(CC1)CC(Oc1cncnc1)=NO2 [III-54]
43 | ≤ 100 nM | O=C(c1ccc(Cl)cc1)N1CCC2(CC1)CC(Oc1cncnc1)=NO2 [III-55]
44 | ≥ 1000 nM | O=C(Nc1ccccc1)N1CCC2(CC1)CC(Oc1cncnc1)=NO2 [III-56]
45 | ≥ 1000 nM | O=C(CCCC(F)(F)F)N1CCC2(CC1)CC(Oc1cncnc1)=NO2 [III-57]
46 | 100 to 1000 nM | CS(=O)(=O)c1ccc(OC2=NOC3(CCN(C(=O)c4ccccc4)CC3)C2)cn1 [III-58]
47 | ≥ 1000 nM | O=C(OCc1ccccc1)N1CCC2(CC1)CC(N1CCCC1)=NO2 [III-59]
48 | ≥ 1000 nM | C[N+]1(C2=NOC3(CCN(C(=O)OCc4ccccc4)CC3)C2)CCCC1 [III-60]
49 | ≤ 100 nM | BrC1=NO[C@]2(CCCc3cc(Oc4ccccc4)ccc32)C1 [III-62a]
50 | ≤ 100 nM | BrC1=NO[C@@]2(CCCc3cc(Oc4ccccc4)ccc32)C1 [III-62b]
51 | ≤ 100 nM | BrC1=NO[C@]2(CCc3cc(Oc4ccccc4)ccc32)C1 [III-63a]
52 | ≤ 100 nM | BrC1=NO[C@@]2(CCc3cc(Oc4ccccc4)ccc32)C1 [III-63b]
53 | ≤ 100 nM | FC(F)(F)Oc1ccc2c(c1)CC[C@@]21CC(Br)=NO1 [III-66a]
54 | ≤ 100 nM | FC(F)(F)Oc1ccc2c(c1)CC[C@]21CC(Br)=NO1 [III-66b]
55 | ≤ 100 nM | CSc1ccc(OC2=NO[C@]3(CCc4cc(OC(F)(F)F)ccc43)C2)cn1 [III-67a]
56 | ≤ 100 nM | CSc1ccc(OC2=NO[C@@]3(CCc4cc(OC(F)(F)F)ccc43)C2)cn1 [III-67b]
57 | ≤ 100 nM | CS(=O)(=O)c1ccc(OC2=NO[C@]3(CCc4cc(OC(F)(F)F)ccc43)C2)cn1 [III-68a]
58 | ≤ 100 nM | CS(=O)(=O)c1ccc(OC2=NO[C@@]3(CCc4cc(OC(F)(F)F)ccc43)C2)cn1 [III-68b]

Row | Structure (SMILES) | Ki
59 | BrC1=NOC2(CCCCC2)C1 [III-1] | ≤ 100 nM
60 | CC(C)(C)OC(=O)N1CCC2(CC1)CC(Br)=NO2 [III-9] | ≤ 100 nM
61 | CC(C)(C)OC(=O)N1C2CCC1CC1(CC(Br)=NO1)C2 (stereo not drawn) [III-13a] | ≥ 1000 nM
62 | BrC1=NOC2(CCNCC2)C1 [III-14] | ≥ 1000 nM
63 | BrC1=NOC2(CCN(Cc3ccccc3)CC2)C1 [III-19] | ≤ 100 nM
64 | Clc1ccc(CN2CCC3(CC2)CC(Br)=NO3)cc1 [III-20] | ≤ 100 nM
65 | BrC1=NOC2(CCN(Cc3ccccn3)CC2)C1 [III-22] | 100 to 1000 nM
66 | BrC1=NOC2(CCN(Cc3cccnc3)CC2)C1 [III-23] | 100 to 1000 nM
67 | Cc1ccc(CN2CCC3(CC2)CC(Br)=NO3)cc1 [III-24] | ≤ 100 nM
68 | Clc1cccc(CN2CCC3(CC2)CC(Br)=NO3)c1 [III-27] | ≤ 100 nM
69 | BrC1=NOC2(CCN(CCc3ccccc3)CC2)C1 [III-29] | ≤ 100 nM
70 | BrC1=NOC2(CCN(CC3CCCCC3)CC2)C1 [III-32] | ≤ 100 nM
71 | CC(C)(C)CN1CCC2(CC1)CC(Br)=NO2 [III-33] | 100 to 1000 nM
72 | Clc1ccc(CN2CC3ON=C(Br)C3C2)cc1 (stereo not drawn) [III-45] | ≥ 1000 nM
